ChEMBL document CHEMBL1275550, “In vitro activity of doripenem, a carbapenem for the treatment of challenging infections caused by gram-negative bacteria, against recent clinical isolates from the United States” (2008)
In brackets after ≈: the same amount, converted by molar mass.

Key:
[1] = system: Enterobacteriaceae; experiment: Antimicrobial activity against ceftazidime-susceptible Enterobacteriaceae assessed as intermediate isolate by broth microdilution method; format: functional
[2] = system: Citrobacter; experiment: Antimicrobial activity against Citrobacter with nonderepressed AmpC beta-lactamsae by broth microdilution method; format: functional
[3] = system: Pseudomonas aeruginosa; experiment: Antimicrobial activity against Pseudomonas aeruginosa isolated from non-ICU patient assessed as resistant isolate by broth microdilution method
[4] = system: Acinetobacter; experiment: Antimicrobial activity against imipenem non-susceptible Acinetobacter assessed as intermediate isolate by broth microdilution method; format: functional
[5] = system: Proteus mirabilis; experiment: Antimicrobial activity against Non-ESBL Proteus mirabilis assessed as susceptible isolate by broth microdilution method; format: functional
[6] = system: Klebsiella pneumoniae; experiment: Antimicrobial activity against Non-ESBL Klebsiella pneumoniae by broth microdilution method; format: functional
[7] = system: Serratia marcescens; experiment: Antimicrobial activity against Ceftazidime susceptible Serratia marcescens assessed as resistant isolate by broth microdilution method; format: functional
[8] = system: Klebsiella pneumoniae; experiment: Antimicrobial activity against Non-ESBL Klebsiella pneumoniae assessed as intermediate isolate by broth microdilution method; format: functional
[9] = system: Pseudomonas aeruginosa; experiment: Antimicrobial activity against Ceftazidime susceptible Pseudomonas aeruginosa assessed as intermediate isolate by broth microdilution method; format: functional
[10] = system: Enterobacter cloacae; experiment: Antimicrobial activity against Enterobacter cloacae with derepressed AmpC beta-lactamsae assessed as susceptible isolate by broth microdilution method; format: functional
[11] = system: Citrobacter; experiment: Antimicrobial activity against Citrobacter with derepressed AmpC beta-lactamsae assessed as intermediate isolate by broth microdilution method; format: functional
[12] = system: Proteus mirabilis; experiment: Antimicrobial activity against Non-ESBL Proteus mirabilis assessed as intermediate isolate by broth microdilution method; format: functional
[13] = system: Pseudomonas aeruginosa; experiment: Antimicrobial activity against Pseudomonas aeruginosa isolated from non-ICU patient by broth microdilution method
[14] = system: Enterobacter cloacae; experiment: Antimicrobial activity against Enterobacter cloacae with nonderepressed AmpC beta-lactamsae assessed as susceptible isolate by broth microdilution method; format: functional
[15] = system: Enterobacter cloacae; experiment: Antimicrobial activity against Enterobacter cloacae with derepressed AmpC beta-lactamsae by broth microdilution method; format: functional
[16] = system: Pseudomonas aeruginosa; experiment: Antimicrobial activity against Ceftazidime non-susceptible Pseudomonas aeruginosa assessed as intermediate isolate by broth microdilution method; format: functional
[17] = system: Klebsiella pneumoniae; experiment: Antimicrobial activity against ESBL producing Klebsiella pneumoniae by broth microdilution method; format: functional
[18] = system: Proteus mirabilis; experiment: Antimicrobial activity against ESBL producing Proteus mirabilis assessed as intermediate isolate by broth microdilution method; format: functional
[19] = system: Acinetobacter; experiment: Antimicrobial activity against imipenem susceptible Acinetobacter assessed as intermediate isolate by broth microdilution method; format: functional
[20] = system: Escherichia coli; experiment: Antimicrobial activity against Non-ESBL Escherichia coli assessed as susceptible isolate by broth microdilution method; format: functional
[21] = system: Klebsiella pneumoniae; experiment: Antimicrobial activity against ESBL producing Klebsiella pneumoniae assessed as susceptible isolate by broth microdilution method; format: functional
[22] = system: Citrobacter; experiment: Antimicrobial activity against Citrobacter with nonderepressed AmpC beta-lactamsae assessed as susceptible isolate by broth microdilution method; format: functional
[23] = system: Pseudomonas aeruginosa; experiment: Antimicrobial activity against imipenem non-susceptible Pseudomonas aeruginosa assessed as susceptible isolate by broth microdilution method; format: functional
[24] = system: Enterobacter cloacae; experiment: Antimicrobial activity against Enterobacter cloacae with derepressed AmpC beta-lactamsae assessed as intermediate isolate by broth microdilution method; format: functional
[25] = system: Pseudomonas aeruginosa; experiment: Antimicrobial activity against Ceftazidime susceptible Pseudomonas aeruginosa assessed as susceptible isolate by broth microdilution method; format: functional
[26] = system: Citrobacter; experiment: Antimicrobial activity against Citrobacter with nonderepressed AmpC beta-lactamsae assessed as intermediate isolate by broth microdilution method; format: functional
[27] = system: Acinetobacter; experiment: Antimicrobial activity against imipenem susceptible Acinetobacter assessed as resistant isolate by broth microdilution method; format: functional
[28] = system: Enterobacteriaceae; experiment: Antimicrobial activity against Ceftazidime non-susceptible Enterobacteriaceae assessed as susceptible isolate by broth microdilution method; format: functional
[29] = system: Pseudomonas aeruginosa; experiment: Antimicrobial activity against Pseudomonas aeruginosa isolated from non-ICU patient by broth microdilution method; format: functional
[30] = system: Acinetobacter; experiment: Antimicrobial activity against imipenem susceptible Acinetobacter assessed as susceptible isolate by broth microdilution method; format: functional
[31] = system: Citrobacter; experiment: Antimicrobial activity against Citrobacter with derepressed AmpC beta-lactamsae by broth microdilution method; format: functional
[32] = system: Pseudomonas aeruginosa; experiment: Antimicrobial activity against Ceftazidime non-susceptible Pseudomonas aeruginosa assessed as resistant isolate by broth microdilution method; format: functional
[33] = system: Pseudomonas aeruginosa; experiment: Antimicrobial activity against Pseudomonas aeruginosa isolated from patient by broth microdilution method
[34] = system: Proteus mirabilis; experiment: Antimicrobial activity against Non-ESBL Proteus mirabilis assessed as resistant isolate by broth microdilution method; format: functional
[35] = system: Pseudomonas aeruginosa; experiment: Antimicrobial activity against Pseudomonas aeruginosa isolated from ICU patient by broth microdilution method; format: functional
[36] = system: Serratia marcescens; experiment: Antimicrobial activity against Ceftazidime susceptible Serratia marcescens assessed as intermediate isolate by broth microdilution method; format: functional
[37] = system: Proteus mirabilis; experiment: Antimicrobial activity against Proteus mirabilis assessed as susceptible isolate by broth microdilution method; format: functional
[38] = system: Staphylococcus aureus; experiment: Antimicrobial activity against methicillin-susceptible Staphylococcus aureus by broth microdilution method; format: functional
[39] = system: Acinetobacter; experiment: Antimicrobial activity against Acinetobacter assessed as resistant isolate by broth microdilution method; format: functional
[40] = system: Klebsiella pneumoniae; experiment: Antimicrobial activity against Klebsiella pneumoniae by broth microdilution method; format: functional
[41] = system: Proteus mirabilis; experiment: Antimicrobial activity against Proteus mirabilis assessed as intermediate isolate by broth microdilution method; format: functional
[42] = system: Staphylococcus; experiment: Antimicrobial activity against methicillin-susceptible coagulase-negative Staphylococcus by broth microdilution method; format: functional
[43] = system: Klebsiella pneumoniae; experiment: Antimicrobial activity against Klebsiella pneumoniae assessed as susceptible isolate by broth microdilution method; format: functional
[44] = system: Streptococcus pneumoniae; experiment: Antimicrobial activity against penicillin-resistant Streptococcus pneumoniae assessed as resistant isolate by broth microdilution method; format: functional
[45] = system: Escherichia coli; experiment: Antimicrobial activity against Escherichia coli assessed as intermediate isolate by broth microdilution method; format: functional
[46] = system: Staphylococcus aureus; experiment: Antimicrobial activity against methicillin-susceptible Staphylococcus aureus assessed as susceptible isolate by broth microdilution method; format: functional
[47] = system: Serratia marcescens; experiment: Antimicrobial activity against Serratia marcescens assessed as intermediate isolate by broth microdilution method; format: functional
[48] = system: Staphylococcus; experiment: Antimicrobial activity against methicillin-susceptible coagulase-negative Staphylococcus assessed as susceptible isolate by broth microdilution method; format: functional
[49] = system: Proteus mirabilis; experiment: Antimicrobial activity against Proteus mirabilis by broth microdilution method; format: functional
[50] = system: Serratia marcescens; experiment: Antimicrobial activity against Serratia marcescens assessed as susceptible isolate by broth microdilution method; format: functional
[51] = system: Acinetobacter; experiment: Antimicrobial activity against Acinetobacter assessed as intermediate isolate by broth microdilution method; format: functional
[52] = system: Klebsiella pneumoniae; experiment: Antimicrobial activity against Klebsiella pneumoniae assessed as intermediate isolate by broth microdilution method; format: functional
[53] = system: Streptococcus pneumoniae; experiment: Antimicrobial activity against penicillin-resistant Streptococcus pneumoniae by broth microdilution method; format: functional

## CC(C)(O/N=C(\C(=O)N[C@@H]1C(=O)N2C(C(=O)[O-])=C(C[n+]3ccccc3)CS[C@H]12)c1csc(N)n1)C(=O)O [CEFTAZIDIME]
[1]
  Activity: 0%
[2]
  MIC50: 0.25 mg/L (≈ 0.457 µM)
  MIC90: 1 mg/L (≈ 1.83 µM)
[3]
  Activity: 10.4%
[4]
  Activity: 0%
[5]
  Activity: 99.5%
[6]
  MIC50: 0.12 mg/L (≈ 0.22 µM)
  MIC90: 0.5 mg/L (≈ 0.915 µM)
[7]
  Activity: 0%
[8]
  Activity: 0.3%
[9]
  Activity: 0%
[10]
  Activity: 1%
[11]
  Activity: 0%
[12]
  Activity: 0.2%
[13]
  Activity: 87.3%
[14]
  Activity: 93.6%
[15]
  MIC50: > 32 mg/L
  MIC90: > 32 mg/L
[16]
  Activity: 23.6%
[17]
  MIC50: > 32 mg/L
  MIC90: > 32 mg/L
[18]
  Activity: 50%
[19]
  Activity: 5.5%
[20]
  Activity: 98.6%
[21]
  Activity: 4.5%
[22]
  Activity: 98.3%
[23]
  Activity: 76.3%
[24]
  Activity: 1.9%
[25]
  Activity: 100%
[26]
  Activity: 0.4%
[27]
  Activity: 27.7%
[28]
  Activity: 0%
[29]
  MIC50: 2 mg/L (≈ 3.66 µM)
  MIC90: 32 mg/L (≈ 58.5 µM)
[30]
  Activity: 66.8%
[31]
  MIC: > 32 mg/L
  MIC50: > 32 mg/L
  MIC90: > 32 mg/L
[32]
  Activity: 76.4%
[33]
  Activity: 2.3%
[34]
  Activity: 0.3%
[35]
  MIC50: 2 mg/L (≈ 3.66 µM)
  MIC90: 32 mg/L (≈ 58.5 µM)
[36]
  Activity: 0%

## C[C@@H](O)[C@H]1C(=O)N2C(C(=O)O)=C(S[C@@H]3CN[C@H](C(=O)N(C)C)C3)[C@H](C)[C@H]12 [MEROPENEM]
[1]
  Activity: 0%
[37]
  Activity: 100%
[2]
  MIC50: 0.06 mg/L (≈ 0.156 µM)
  MIC90: 0.06 mg/L (≈ 0.156 µM)
[38]
  MIC50: 0.12 mg/L (≈ 0.313 µM)
[38]; Staphylococcus aureus, read-out: MIC50
  MIC50: 0.06 mg/L (≈ 0.156 µM)
[3]
  Activity: 12.4%
[39]
  Activity: 18%
[4]
  Activity: 0%
[5]
  Activity: 100%
[6]
  MIC50: 0.06 mg/L (≈ 0.156 µM)
  MIC90: 0.06 mg/L (≈ 0.156 µM)
[7]
  Activity: 0.8%
[8]
  Activity: 0%
[40]
  MIC50: 0.06 mg/L (≈ 0.156 µM)
  MIC90: 0.06 mg/L (≈ 0.156 µM)
[9]
  Activity: 4.7%
[41]
  Activity: 0%
[10]
  Activity: 100%
[42]
  MIC50: 0.12 mg/L (≈ 0.313 µM)
[42]; Staphylococcus, read-out: MIC50
  MIC50: 0.06 mg/L (≈ 0.156 µM)
[11]
  Activity: 0%
[12]
  Activity: 0%
[13]
  Activity: 83.9%
[14]
  Activity: 99.5%
[15]
  MIC50: 0.25 mg/L (≈ 0.652 µM)
  MIC90: 0.5 mg/L (≈ 1.3 µM)
[16]
  Activity: 3.6%
[17]
  MIC50: 0.06 mg/L (≈ 0.156 µM)
  MIC90: 0.25 mg/L (≈ 0.652 µM)
[18]
  Activity: 0%
[43]
  Activity: 99.7%
[44]
  Activity: 2.3%
[19]
  Activity: 1.7%
[45]
  Activity: 0%
[46]
  Activity: 100%
[20]
  Activity: 100%
[47]
  Activity: 0%
[21]
  Activity: 95.5%
[48]
  Activity: 99.4%
[22]
  Activity: 100%
[23]
  Activity: 42.5%
[24]
  Activity: 0%
[25]
  Activity: 88.8%
[26]
  Activity: 0%
[49]
  MIC50: 0.12 mg/L (≈ 0.313 µM)
  MIC90: 0.25 mg/L (≈ 0.652 µM)
[27]
  Activity: 0.4%
[28]
  Activity: 98%
[29]
  MIC50: 1 mg/L (≈ 2.61 µM)
  MIC90: 16 mg/L (≈ 41.7 µM)
[30]
  Activity: 97.9%
[31]
  MIC50: 0.12 mg/L (≈ 0.313 µM)
  MIC90: 0.25 mg/L (≈ 0.652 µM)
[32]
  Activity: 35.5%
[50]
  Activity: 99.2%
[33]
  Activity: 3.7%
[51]
  Activity: 1.4%
[52]
  Activity: 0%
[35]
  MIC50: 1 mg/L (≈ 2.61 µM)
  MIC90: 32 mg/L (≈ 83.4 µM)
[53]
  MIC50: 1 mg/L (≈ 2.61 µM)
[53]; Streptococcus pneumoniae, read-out: MIC50
  MIC50: 1 mg/L (≈ 2.61 µM)
[36]
  Activity: 0%
